Assay results as given in patent publication US8974837B2, “Pharmaceutical composition comprising an extract of Pseudolysimachion longifolium and the catalpol derivatives isolated therefrom having antiinflammatory, antiallergic and antiasthmatic activity” (Korea Research Institute of Bioscience and Biotechnology, priority 2005, dated 2015).

What was measured:
Promyelotic HL-60 cells = assay: MTT assay, cytotoxic effect on HL-60 cells; type: cell-based
Experimental: (§1) To investigate the cytotoxic effect of inventive extract of P. longifolium extract and the compound isolated therefrom was determined by (3-[4,5-dimethylthiazol-2-yl]-2,5-diphenyl tetrazolium bromide(MTT) assay method (Wang Z et al., Biol., Pharm. Bull., 24, pp 159-162, 2001).
(§2) Promyelotic HL-60 cells (HL-18103, 5×10^5 cells/ml) were seeded in 96-well plates under NGF-free condition. After 24 hours incubation, the cells were treated with the mixture of samples dissolved in 10 μl of DMSO and 10 μl of MTT solution (5 mg/ml), and incubated for 4 hours under similar condition. 4 hours later, MTT was removed and 100 μl of DMSO was dropped into each well to dissolve crystals. At 570 nm, UV absorbance was measured by microplate reader (BIO-RAD, U.S.A.) to calculate the cell viability.

[1] = test system: OVA-sensitized/challenged mouse model; assay: Airway hyperresponsiveness (AHR), Penh values in OVA-challenged mice; type: in vivo, BALB/c mice; conditions: 24 hours after final OVA challenge; FIG. 1
Experimental: The AHR was evaluated by calculation Penh values (enhanced pause) 24 hours after the final OVA challenge.
(§3) Specific pathogen-free female BALB/c mice aged 8-10 weeks, which were routinely screened serologically for relevant respiratory pathogens, were purchased from ORIENT Co Ltd (Seoul, Korea).
Following treatment: (1) sham-sensitization plus challenge with phosphate-buffered saline (PBS; ipNeb); (2) sensitization plus challenge with OVA (ovalbumin: Sigma A5503; Sigma, St. Louis, Mo.)(ipNeb); (3) sensitization with OVA (i.p.) plus challenge with OVA (Neb) and samples (extract of P. longifolium or montelukast) was performed to Group of mice (n=5). Briefly, mice were sensitized by intraperitoneal injection of 20 μg OVA, which was emulsified with 2 mg aluminum hydroxide in 100 μl of PBS buffer (pH 7.4) on days 0 and 14. The mice were challenged through the airways with OVA (1% in PBS) for 20 min using an ultrasonic nubuilizer (NE-U12; Omron Corp., Tokyo, Japan) on days 28, 29 and 30 after the initial sensitization. The mice were sacrificed 48 h after the last challenge (day 32) to determine the suppression effect of extract of P. longifolium or verproside on the airways of allergic asthma. […]

OVA-challenged mice [2] = assay: OVA-induced eosinophilia: inflammatory cell counts in bronchoalveolar lavage fluid; type: in vivo, BALB/c mice; conditions: from OVA-treated control group; 48 hours after last challenge
Description: as §3
(§4) Following treatment: (1) sham-sensitization plus challenge with phosphate-buffered saline (PBS; ipNeb); (2) sensitization plus challenge with OVA (ovalbumin: Sigma A5503; Sigma, St. Louis, Mo.)(ipNeb); (3) sensitization with OVA (i.p.) plus challenge with OVA (Neb) and samples (extract of P. longifolium or montelukast) was performed to Group of mice (n=5). Briefly, mice were sensitized by intraperitoneal injection of 20 μg OVA, which was emulsified with 2 mg aluminum hydroxide in 100 μl of PBS buffer (pH 7.4) on days 0 and 14. The mice were challenged through the airways with OVA (1% in PBS) for 20 min using an ultrasonic nubuilizer (NE-U12; Omron Corp., Tokyo, Japan) on days 28, 29 and 30 after the initial sensitization. The mice were sacrificed 48 h after the last challenge (day 32) to determine the suppression effect of extract of P. longifolium or verproside on the airways of allergic asthma.
(§5) The extract of P. longifolium, and verproside were suspended in PBS and administered intragastrically using a 25-gauge stainless steel blunt feeding needle 1 h before each challenge, and control animals were exposed only on the PBS solution. As a positive control, montelukast (MSD Korea Ltd., Seoul, Korea) was treated with the same procedure in the experiment.
The mice were sacrificed with an overdose of pentobarbital (Sigma P3761) […] after the last challenge, and a tracheotomy was performed. After ice-cold 0.5 ml of PBS was instilled into the lungs, bronchoalveolar lavage fluid (BALF) was obtained by aspiration three times (total 1.5 ml) via tracheal cannulation (Yamazaki T, J. Jap. Bot., 43, pp 117-24, 1968)
The total inflammatory cell number was assessed by counting cells in at least five squares of a hemocytometer after excluding dead cells confirmed by staining with trypan blue (Daigle I. et al., Swiss Med Wkly, 131, pp 231-7, 2001). 100 μl of BALF was loaded onto a slide and centrifuged (200×g, 4° C., 10 min) to fix the cells onto the slide using a cytospine machine (Hanil Science Industrial, Korea). The cells were stained by Diff-Quick® Stain reagents (Sysmex, Cat No. 38721, Switzerland) according to the manufacturer's instructions. Statistical significance was determined by Student's two-tailed t-test for independent means and the critical level for significance was set at P<0.05.
To evaluate the suppression of verproside on the eosinophilia in OVA-challenged mice, the recruited cells in BALF were counted 48 hours after the last challenge. OVA caused a marked influx of leucocytes into the BALF from a PBS control group.

OVA-challenged mice [3] = assay: Lung histology (H&E and PAS staining) in OVA-challenged mice; type: in vivo, BALB/c mice; conditions: for mucus area score: PAS, five-point system 0-4, OVA-treated mice 3.60±0.64, FIG. 5
Experimental: as §4, §5
To estimate the suppressive effect of verproside on the eosinophilia, lung tissues were collected 48 hours after the last challenge. The lung tissue was fixed for 24 h in 10% neutral-buffered formalin. After being embedded in paraffin, it is sliced into 4-μm thickness of sections and the tissue was stained with H&E solution (hematoxylin; Sigma MHS-16 and eosin, Sigma HT110-I-32).
In Periodic acid Schiff (PAS) staining, mucus overproduction in the OVA-treated mice was clearly observed as a violet color in the bronchial airways compared with the normal mice. […] Goblet-cell hyperplasia in the airway epithelium was quantified based on a five-point system: 0, no goblet cells; 1, <25% of the epithelium; 2, 25-50% of the epithelium; 3, 50-75% of the epithelium; 4, >75% of the epithelium. For each mouse, five airway sections that were randomly distributed throughout the left lung were analysed, and their average scores were calculated. Quantitative analysis of mucus production was performed using an image analyzer (Leica Microsystem Imaging solution Ltd.; Cambridge, UK).

IgE = assay: Measurement of IgE by ELISA in plasma and BALF of OVA-challenged mice; type: in vivo, mouse; conditions: for IgE level in BALF: OVA-treated mice 59.4±38.4; for IgE level in plasma: OVA-treated mice 85.6±17.3
Experimental: as §4, §5
Complementary capture and detection antibody pairs for mouse IgE antibodies were purchased from PharMingen (San Diego, Calif.), and the IgE enzyme-linked immunosorbent assay (ELISA) was performed according to the manufacturer's directions. Duplicate samples in plasma were diluted to 1:100. IgE levels in each sample were measured from optical density readings at 450 nm, and IgE concentrations were calculated from a standard curve that was generated using recombinant IgE (5-2,000 ng/ml). The amount of IL-4 and IL-13 contained in BALF was measured with a specific mouse ELISA kit (R&D Systems; Minneapolis, Minn.). The detection limit of the assays was 250 pg/ml.

IL-4 = assay: Measurement of IL-4 in BALF by ELISA in OVA-induced asthmatic mice; type: in vivo, mouse; conditions: from OVA-challenged group; 48 hours after last challenge
Experimental: (§6) Following treatment: (1) sham-sensitization plus challenge with phosphate-buffered saline (PBS; ipNeb); (2) sensitization plus challenge with OVA (ovalbumin: Sigma A5503; Sigma, St. Louis, Mo.)(ipNeb); (3) sensitization with OVA (i.p.) plus challenge with OVA (Neb) and samples (extract of P. longifolium or montelukast) was performed to Group of mice (n=5). Briefly, mice were sensitized by intraperitoneal injection of 20 μg OVA, which was emulsified with 2 mg aluminum hydroxide in 100 μl of PBS buffer (pH 7.4) on days 0 and 14. […]
(§7) Complementary capture and detection antibody pairs for mouse IgE antibodies were purchased from PharMingen (San Diego, Calif.), and the IgE enzyme-linked immunosorbent assay (ELISA) was performed according to the manufacturer's directions. […] IgE levels in each sample were measured from optical density readings at 450 nm, and IgE concentrations were calculated from a standard curve that was generated using recombinant IgE (5-2,000 ng/ml). The amount of IL-4 and IL-13 contained in BALF was measured with a specific mouse ELISA kit (R&D Systems; Minneapolis, Minn.). […]
(§8) To determine the effect of verproside on cytokine release in the OVA-induced asthmatic mice, the levels of cytokines (IL-4 and IL-13) in BALF were measured using ELISA 48 hours after the last challenge. […]

IL-13 = assay: Measurement of IL-13 in BALF by ELISA in OVA-induced asthmatic mice; type: in vivo, mouse; conditions: from OVA-challenged group; 48 hours after last challenge
Experimental: as §6, §7, §8

[4] = MTT assay, cytotoxic effect on HL-60 cells; type: cell-based; conditions: human, HL-60 promyelocytic cells, read-out: Cell viability (%)
Experimental: as §1, §2

| SMILES | Cell viability (%) (Promyelotic HL-60 cells; 50 μM) | Cell viability (%) (Promyelotic HL-60 cells; 100 μM) | Penh value compared with OVA-treated group (in words) [1] | decrease in eosinophils in BALF (OVA-challenged mice [2]) [%] | decrease in total cells in BALF (OVA-challenged mice [2]) [%] | mucus area score (OVA-challenged mice [3]) | infiltration of eosinophil-rich leukocytes in lung tissue (H&E) (OVA-challenged mice [3]; compared with OVA-treated mice, 48 hours after last challenge, FIG. 3) | mucus in bronchial airways (PAS staining) (OVA-challenged mice [3]; compared with OVA-treated mice, FIG. 4) | IgE level in BALF (IgE) [ng/mL] | IgE level in plasma (IgE) [µg/mL] | decrease in IL-4 in BALF (IL-4) [%] | decrease in IL-13 in BALF (IL-13) [%] | viability at 4 h, 50 µM ([4]; 50 μM) [%] | viability at 4 h, 100 µM ([4]; 100 μM) [%] |
| --- | --- | --- | --- | --- | --- | --- | --- | --- | --- | --- | --- | --- | --- | --- |
| O=C(O[C@H]1[C@@H]2C=CO[C@@H](O[C@@H]3O[C@H](CO)[C@@H](O)[C@H](O)[C@H]3O)[C@@H]2[C@@]2(CO)O[C@@H]12)c1ccc(O)c(O)c1 [verproside, 6-O-3,4-Dihydroxybenzoyl catalpol] | 105 | 102 | significantly reduced | 86.2±7.2 | 79.3±13.1 | 1.43±0.23 | significantly attenuated | markedly diminished | 21.5 ± 11.2 | 40.2 ± 13.2 | 64.5±27.7 | 74.9±15.5 | – | – |
| COc1ccc(/C=C/C(=O)O[C@H]2[C@@H]3C=CO[C@@H](O[C@@H]4O[C@H](CO)[C@@H](O)[C@H](O)[C@H]4O)[C@@H]3[C@@]3(CO)O[C@@H]23)cc1O [Minecoside, 6-O-3-hydroxy-4-methozycinnamoyl catalpol] | – | – | – | – | – | – | – | – | – | – | – | – | 98 | 95 |
| CC(C)(O)c1ccccc1CC[C@@H](SCC1(CC(=O)O)CC1)c1cccc(/C=C/c2ccc3ccc(Cl)cc3n2)c1 [montelukast, reference compound] | – | – | – | 80.7±11.1 | 78.3±12.1 | 1.53±0.24 | – | – | 3.8 ± 0.7 | 31.4 ± 14.2 | 69.5±22.0 | 84.5±8.2 | – | – |
| COc1ccc(C(=O)O[C@H]2[C@@H]3C=CO[C@@H](O[C@@H]4O[C@H](CO)[C@@H](O)[C@H](O)[C@H]4O)[C@@H]3[C@@]3(CO)O[C@@H]23)cc1OC [6-O-veratroyl catalpol, 6-O-(3,4-dimethoxybenzoyl) catalpol] | 116 | 114 | – | – | – | – | – | – | – | – | – | – | – | – |
